Laboratory results from US20240199647A1, “ANTI-VIRAL COMPOUNDS” (Aligos Therapeutics, Inc., priority 2022, published 2024).
Where two headings read alike, the source gives them in different places.

Tests used:
SARS-Cov-2 3CLpro = SARS-Cov-2 3CLpro (Severe acute respiratory syndrome coronavirus 2, UniProt P0DTD1); assay: biochemical; settings: Table A, class symbols, read-out: SARS-Cov-2 (IC50)
[1] = test system: human beta-coronavirus OC43; assay: OC43 Coronavirus Assay in HeLa cells (antiviral, cytopathic effect, cell-titer-glo); type: cell-based; settings: Betacoronavirus 1, OC43, HeLa, Table B; OC43 coronavirus in HeLa cells, class symbols; read-out: EC50
[2] = test system: SARS-CoV-2 B.1.1.7 lineage; assay: microbe, parasite or virus in culture; type: cell-based; settings: Severe acute respiratory syndrome coronavirus 2, Table C, SARS-CoV-2 B.1.1.7 in A549-dual_ACE2_TMPRSS2 cells, read-out: A549-dual_ACE2_TMPRSS2 (EC50)
in vitro = settings: human
[3] = Cytotoxicity in HeLa cells without addition of OC43 virus (in parallel); settings: human, HeLa cells, without OC43 virus

SMILES | IC50 (SARS-Cov-2 3CLpro) [nM] | EC50 [1] [nM] | EC50 ([2]; class symbols) [nM] | CC50 (in vitro) [nM] | CC50 at 6 days [3] [nM] | EC50 ([2]; cells given as a bound) [nM]
CN(C(=O)[C@@H](NC(=O)C(F)(F)F)C1CC1)[C@@H](CC1CC1)C(=O)N1C[C@@]2(C[C@H]1C#N)Oc1cc(F)cc(F)c1NC2=O [Compound 194] | < 20 | < 100 | < 100 | > 1000 | > 10000 | 
C[C@H](NC(=O)c1ccc(F)cc1)C(=O)N(C)[C@@H](CC1CC1)C(=O)N1C[C@@]2(C[C@H]1C#N)Oc1cccnc1NC2=O [Compound 195] | < 20 | 100 to 1000 | 100 to 1000 | > 1000 | > 10000 | 
C[C@@H](OC(C)(C)C)[C@H](NC(=O)C(F)(F)F)C(=O)N(C)[C@@H](CC1CC1)C(=O)N1C[C@@]2(C[C@H]1C#N)Oc1cccnc1NC2=O [Compound 196] | < 20 | < 100 | 100 to 1000 | > 1000 | > 10000 | 
CN(C(=O)[C@H](CC1CC1)NS(=O)(=O)c1ccc(F)cc1)[C@@H](CC1CC1)C(=O)N1C[C@@]2(C[C@H]1C#N)Oc1cccnc1NC2=O [Compound 197] | < 20 | < 100 | 100 to 1000 | > 1000 | > 10000 | 
CN(C(=O)[C@H](CC1CC1)NS(=O)(=O)C1(C)CC1)[C@@H](CC1CC1)C(=O)N1C[C@@]2(C[C@H]1C#N)Oc1cccnc1NC2=O [Compound 198] | < 20 | < 100 | 100 to 1000 | > 1000 | > 10000 | 
CN(C(=O)[C@H](CC1CC1)NC(=O)C(F)(F)F)[C@@H](CC1CC1)C(=O)N1C[C@@]2(C[C@H]1C#N)Oc1c(F)cc(F)cc1CNC2=O [Compound 199] | < 20 | < 100 | 100 to 1000 | > 1000 | > 10000 | 
CN(C(=O)[C@@H](Cc1ccc(F)cc1)NC(=O)C(F)(F)F)[C@@H](CC1CC1)C(=O)N1C[C@@]2(C[C@H]1C#N)Oc1cccnc1NC2=O [Compound 200] | < 20 | 100 to 1000 | < 100 | > 1000 | > 10000 | 
CN(C(=O)[C@@H](NC(=O)C(F)(F)F)C1CC(F)(F)C1)[C@@H](CC1CC1)C(=O)N1C[C@@]2(C[C@H]1C#N)Oc1cccnc1NC2=O [Compound 201] | 20 to 200 | 100 to 1000 | 100 to 1000 | > 1000 | > 10000 | 
CN(C(=O)[C@H](COc1ccccc1)NC(=O)C(F)(F)F)[C@@H](CC1CC1)C(=O)N1C[C@@]2(C[C@H]1C#N)Oc1cccnc1NC2=O [Compound 202] | < 20 | 100 to 1000 |  | > 1000 | > 10000 | > 1000
CN(C(=O)[C@H](CC1CCC1)NC(=O)C(F)(F)F)[C@@H](CC1CC1)C(=O)N1C[C@@]2(C[C@H]1C#N)Oc1ncccc1NC2=O [Compound 203] | < 20 | < 100 | < 100 | > 1000 | > 10000 | 
CN(C(=O)[C@H](CC(C)(C)C)NC(=O)C(F)(F)F)[C@@H](CC1CC1)C(=O)N1C[C@@]2(C[C@H]1C#N)Oc1ncccc1NC2=O [Compound 204] | < 20 | < 100 | < 100 | > 1000 | > 10000 | 
CN(C(=O)[C@@H](Cc1ccc(F)cc1)NC(=O)C(F)(F)F)[C@@H](CC1CC1)C(=O)N1C[C@@]2(C[C@H]1C#N)Oc1ncccc1NC2=O [Compound 205] | < 20 | < 100 | < 100 | > 1000 | > 10000 | 
CN(C(=O)[C@H](CC1(C)CCC1)NC(=O)C(F)(F)F)[C@@H](CC1CC1)C(=O)N1C[C@@]2(C[C@H]1C#N)Oc1ncccc1NC2=O [Compound 206] | < 20 | < 100 | < 100 | > 1000 | > 10000 | 
CN(C(=O)[C@H](CC1CC1)NC(=O)C(F)(F)F)[C@@H](CC1CC1)C(=O)N1C[C@@]2(C[C@H]1C#N)Oc1cc(F)cc(F)c1CNC2=O [Compound 207] | 20 to 200 | < 100 | < 100 | > 1000 | > 10000 | 
CN(C(=O)c1ncc(-c2ccccc2)[nH]1)[C@@H](CC1CC1)C(=O)N1C[C@@]2(C[C@H]1C#N)Oc1cccnc1NC2=O [Compound 208] | 20 to 200 | 100 to 1000 | 100 to 1000 | > 1000 | > 10000 | 
C[C@H](NC(=O)C(F)(F)F)C(=O)N(C)[C@@H](CC1CC1)C(=O)N1C[C@@]2(C[C@H]1C#N)Oc1ncccc1NC2=O [Compound 209] | < 20 | < 100 | 100 to 1000 | > 1000 | > 10000 | 
COC(=O)N[C@@H](C)C(=O)N(C)[C@@H](CC1CC1)C(=O)N1C[C@@]2(C[C@H]1C#N)Oc1cccnc1NC2=O [Compound 213] | < 20 | < 100 | 100 to 1000 | > 1000 | > 10000 | 
COC(=O)N[C@@H](CC1CC1)C(=O)N(C)[C@@H](CC1CC1)C(=O)N1C[C@@]2(C[C@H]1C#N)Oc1ncccc1NC2=O [Compound 214] | < 20 | < 100 | 100 to 1000 | > 1000 | > 10000 | 
CN(C(=O)[C@H](CC1(C)CC1)NC(=O)C(F)(F)F)[C@@H](CC1(C)CC1)C(=O)N1C[C@@]2(C[C@H]1C#N)Oc1cccnc1NC2=O [Compound 215] | < 20 | < 100 | < 100 | > 1000 | > 10000 | 
C[C@H](NC(=O)OC1CC1)C(=O)N(C)[C@@H](CC1CC1)C(=O)N1C[C@@]2(C[C@H]1C#N)Oc1cccnc1NC2=O [Compound 219] | < 20 | < 100 | 100 to 1000 | > 1000 | > 10000 | 
CCOC[C@H](NC(=O)C(F)(F)F)C(=O)N(C)[C@@H](CC1CC1)C(=O)N1C[C@@]2(C[C@H]1C#N)Oc1cccnc1NC2=O [Compound 220] | < 20 | < 100 | 100 to 1000 | > 1000 | > 10000 | 
CC1NC(=O)[C@]2(C[C@@H](C#N)N(C(=O)[C@H](CC3CC3)N(C)C(=O)[C@H](CC3CC3)NC(=O)C(F)(F)F)C2)Oc2ccccc21 (stereo partly drawn) [Compound 222, (2S)—N-((2S)-1-((2R,5'S)-5′-cyano-5-methyl-3-oxo-4,5-dihydro-3H-spiro[benzo[f][1,4]oxazepine-2,3′-pyrrolidin]-1′-yl)-3-cyclopropyl-1-oxopropan-2-yl)-3-cyclopropyl-N-methyl-2-(2,2,2-trifluoroacetamido)propanamide] | < 20 | < 100 | < 100 | > 1000 | > 10000 | 
COC1CNC(=O)[C@]12C[C@@H](C#N)N(C(=O)[C@H](CC1CC1)N(C)C(=O)[C@H](CC1CC1)NC(=O)C(F)(F)F)C2 (stereo partly drawn) [Compound 225, (2S)—N-((2S)-1-((3S,5S)-3-cyano-9-methoxy-6-oxo-2,7-diazaspiro[4.4]nonan-2-yl)-3-cyclopropyl-1-oxopropan-2-yl)-3-cyclopropyl-N-methyl-2-(2,2,2-trifluoroacetamido)propanamide] | 20 to 200 | 100 to 1000 | 100 to 1000 | > 1000 | > 10000 | 
